Experimental data taken from patent US5965605A, “Inhibition of the binding human IgE to its receptor by tetracyclic compounds for the alleviation of IgE-mediated immune response” (Heska Corporation, priority 1997, dated 1999).

Tests used:
[1] = target: human IgE / soluble FcεRI α (Fc-FcεRIα fusion protein); assay: Protein-based IgE-FcεRI binding assay (ELISA); conditions: for % Inhibition of IgE/FcεRI binding: 10 μg/ml
Method: A protein-based in vitro assay was developed to screen for compounds which block the interaction between IgE and FcεRI. This assay used human IgE and soluble FcεRI α proteins which were prepared as outlined below. As will be described more below, the assay was performed in the format of an Enzyme-linked ImmunoSorbent Assay (ELISA) as follows. ELISA plates were prepared by coating 96-well plates with soluble FcεRI α protein. In the binding step, biotinylated IgE was captured by the FcεRI α in the wells. In the detection step, bound biotinylated IgE was quantitated by the addition of avidin-horseradish peroxidase and a chromogenic substrate. For the screening of antagonists, the IgE and FcεRI binding assay was performed in the presence of various testing compounds. Compounds that inhibit the interaction between IgE and FcεRI α could be readily detected. This assay was then applied to screen tens of thousand of compounds from a diversified chemical library.
To provide IgE for the ELISA, a recombinant IgE DNA construct was built by ligating a mouse heavy chain variable region, Vh, gene fragment to a human IgE heavy chain, Cε.
The growth medium collected from the above transfected cell culture was concentrated 30-50 times by membrane filtration (Filtron, Northboro, Mass.) and passed through a column of NIP (Genosys Biotechnologies Inc.)-bovine serum albumin (BSA) sepharose. The bound IgE was subsequently eluted from NIP-BSA sepharose using 5 M MgCl2. The eluate was then dialyzed in phosphate buffered saline (PBS). The integrity of the purified IgE was analyzed by SDS-polyacrylamide gel electrophoresis.
To provide soluble FcεRI α protein for ELISA, a DNA construct was made to produce soluble FcεRI α as a protein fused to the Fc region of the human immunoglobulin G heavy chain. The protein product of the construct will he termed Fc-FcεRIα.
The culture media of the cells producing Fc-FcεRI α fusion protein was collected and passed through a Protein A Sepharose column (Repligen, Cambridge, Mass.). The bound fusion protein was eluted from the Protein A Sepharose in 100 mM sodium citrate buffer (pH 4.0) and immediately neutralized with 0.1 volume of 1M Tris-hydrochloride, pH 8. The integrity of the purified protein was analyzed by SDS-polyacrylamide gel electrophoresis.
Fc-FcεRIα was diluted to 0.4 μg/ml in PBS and was used to coat 96-well plates. One hundred microliters of the FcεRIα fusion protein was added to wells of the 96-well plates, and the plate was incubated at 4° C. for 20 hr and washed twice with PBS/T (PBS containing 0.05% Tween-20). The non-specific binding sites in each of the wells were blocked with 200 μl of blocking buffer (PBS containing 1% of BSA and 1% of goat serum) at 37° C. for 2 hr. The plates were then washed 4 times with PBS/T and stored frozen at -20° C. The plates were thawed at room temperature just before use.
IgE was biotinylated as follows. Ten microliters of a 40 mg/ml sulfosuccimidyl 6-(biotinamido)-hexanolate (Pierce, Rockford, Ill.) in dimethylsulphoxide was added to 1 ml of 1 mg/ml IgE in sodium bicarbonate buffer, pH 8.0. After a 4 hr incubation at room temperature, the biotinylation was terminated by the addition of 25 μl of 2M Tris hydrochloride, pH 8 and the resulting biotinylated IgE was diayzed against PBS.
One hundred microliter of this solution was added to wells of a 96-well plate which had been previously coated with Fc-FcεRIα. […] After an additional one hour incubation at room temperature,the plate was again washed four times with PBS/T. The reaction with Avidin-HRP was developed by the addition of 100 μl of K-blue (Elisa Technologies, Lexington, Ky.) to each well.

IgE/FcεRI [2] = assay: Systemic PCA model in rats; assay type: in vivo, Sprague Dawley rats
Method: The compounds that have activity in the in situ PCA model were tested in the systemic PCA model. This model measures usefulness of a tetracyclic compound for blocking PCA in rats when the tetracyclic compound is administered systemically and the rats were sensitized with IgE at the skin. In this example, compound I was administrate first into the rats by intravenous (I.V.) injection, and immediately thereafter 0.03 μg/ml of anti-dinitrophenyl/IgE was injected into the skin of the shaved back of Sprague Dawley rats. After a sensitization period of 1 hr, the sensitized rats were challenged with an intravenous injection of 1 mg/ml of dinitrophenyl human albumin in 1% Evan's blue dye. Thirty minutes later, the rats were killed and skinned. As a positive control, PBS, lacking a tetracyclic compound, was administered by I.V. injection into Sprague Dawley rats, and the rats were treated in the same manner as the test rats. Percent inhibition of PCA obtained in this model is calculated by determining reduction of blue dye extracted from the tetracyclic compound treated rats compared to the positive control rats.

IgE/FcεRI [3] = assay: in situ rat passive cutaneous anaphylaxis (PCA) model; assay type: in vivo, Sprague Dawley rats; conditions: for Percent inhibition of PCA reaction: injected into skin with 0.03 μg/ml IgE; for IC50, inhibition of anaphylaxis in the rat PCA model: in situ rat PCA model
Excerpt: The tetracyclic compounds that antagonized the IgE and FcεRIα interaction identified in the protein-based assay were further evaluated in the rat PCA model (Haak-Frendscho, et al., J. Immunol., 151:351-358, 1993). […] Mouse anti-dinitrophenyl IgE (Sigma ImmunoChemicals, St. Louis, Mo.) is a bifunctional antibody which binds to dinitrophenyl as well as FcεRI. Exposure of anti-dinitrophenyl-IgE to dinitrophenyl-albumin causes aggregation of the antibody and induces the IgE mediated immune response. […] Fifty microliters of these solutions were injected into the skin of the shaved back of Sprague Dawley rats (Taconic, Germantown, N.Y.). As a positive control, the same amount of anti-dinitrophenyl-IgE in the absence of a tetracyclic compound was injected into the skin of the same rat at a different site. After a period of two hours the sensitized rats were challenged with an intravenous injection of 1 mg/ml of dinitrophenyl-human albumin (Sigma ImmunoChemicals, St. Louis, Mo.) in 1% Evan's blue dye. Thirty minute later, the rats were killed and skinned. Percent inhibition was calculated by the reduction of blue dye at the tetracyclic compound treated injection sites versus the positive control sites.

[4] = Pharmacokinetic studies in rats; assay type: in vivo; conditions: blood, iv, rat, 10 mg/kg I.V.
Method: The pharmacokinetic (PK) profile of the compounds following systemic I.V. injection was measured. Compound 1 was formulated in PBS and given to a rat at 10 mg/kg. Blood was drawn from the rat at different time points after injection. The concentrations of compound 1 in the blood were measured by HPLC after separation from serum.

[5] = Toxicity studies in mice, single I.V. injection; assay type: in vivo
Excerpt: The potential toxic side effects following systemic administration was investigated by administering compound 1 in PBS to mice in single I.V. injection.

[6] = target: T1, human FcεRI transfected rat basophil leukemia cell line, SX38 (Homo sapiens, UniProt P01854+P12319); assay: Cell-based IgE-FcεRI binding assay; conditions: for IC50: read-out: IC50, inhibition of IgE-FcεRI binding (converted)
T1 construct: biotinylated recombinant IgE (mouse VH, human Cε, J558L)
Method: About 1×10^5 cells in 50 μl of medium were seeded in the wells of 96-well flat bottom plates. […] Forty microliters of this solution was applied to each well and incubated at room temperature for two hours. The plates were washed three times with PBS, and 40 μl of avidin-horseradish peroxidase, at 1 μg/ml in PBS, was added to each well. After an additional hour of incubation at room temperature, the plate was again washed three times with PBS. The subsequent steps for the measurement of the bound IgE were performed as described in the protein-based IgE-FcεRI binding assay.

[7] = test system: rat basophil leukemia cells (RBL cells); assay: Hexosaminidase release assay; assay type: cell-based; conditions: read-out: % Inhibition of IgE mediated hexosaminidase release
Method: Tetracyclic Compounds that antagonized the IgE and FcεRIα interaction identified in the protein-based assay and cell-based assay were further evaluated in a screening assay using rat basophil leukemia cells (RBL cells). […] About 2×10^5 RBL cells were seeded per well in a 96 well plate and were incubated overnight at 37° C. A mixture of biotinylated mouse IgE (100 μl of 0.125 μg/ml) and a tetracyclic compound, e.g. compound 2, in medium was added lo each well and was incubated for 1 hour at 37° C. The cells were then washed twice with triggering buffer (119 mM NaCl, 5 mM KCl, 25 mM disodium PIPES, 5.6 mM glucose, 1 mM CaCl2, 0.1% BSA), and pre-incubated in triggering buffer for 10 min. at 37° C. One hundred microliters of 0.02 μg/ml streptavidin in triggering buffer was then added and the cells were incubated for an additional 30 min. at 37° C. The 96 well plate is then centrifuged at 4° C. to pellet all cells, and 80 μl of the supernatant is harvested on ice and transferred to another 96 well plate. As a positive control, two aliquots of about 2×10^5 RBL cells were lysed with 100 μl of 0.2% Triton in triggering buffer, and the supernatant was harvested after centrifugation to pellet all cell debris. Addition of streptavidin to RBL cells, which have been incubated with biotinylated IgE will trigger the release of IgE mediated allergy mediators, such as histamine. Antagonization of IgE/FcεRI binding by a tetracyclic compound results in the release of a reduced level of allergy mediators. The release of allergy mediators was quantitated by assaying for the presence of the enzyme hexosaminidase in the supernatant The concentration of hexosaminidase was determined by hydrolysis of its substrate, p-NAG (p-nitrophenyl-N-acetate-[…], Sigma Chemical Co.) in citrate buffer (pH 4.5) at 37° C. for 1 hr.

T1 sequence (P12319 26-257): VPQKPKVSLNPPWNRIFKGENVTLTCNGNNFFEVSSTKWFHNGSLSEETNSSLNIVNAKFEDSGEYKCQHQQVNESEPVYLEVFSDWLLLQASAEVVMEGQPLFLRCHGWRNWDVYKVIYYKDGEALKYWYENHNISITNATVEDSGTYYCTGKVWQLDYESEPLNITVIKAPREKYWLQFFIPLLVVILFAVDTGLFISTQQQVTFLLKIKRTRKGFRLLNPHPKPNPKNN
T1 sequence (P01854 whole entry): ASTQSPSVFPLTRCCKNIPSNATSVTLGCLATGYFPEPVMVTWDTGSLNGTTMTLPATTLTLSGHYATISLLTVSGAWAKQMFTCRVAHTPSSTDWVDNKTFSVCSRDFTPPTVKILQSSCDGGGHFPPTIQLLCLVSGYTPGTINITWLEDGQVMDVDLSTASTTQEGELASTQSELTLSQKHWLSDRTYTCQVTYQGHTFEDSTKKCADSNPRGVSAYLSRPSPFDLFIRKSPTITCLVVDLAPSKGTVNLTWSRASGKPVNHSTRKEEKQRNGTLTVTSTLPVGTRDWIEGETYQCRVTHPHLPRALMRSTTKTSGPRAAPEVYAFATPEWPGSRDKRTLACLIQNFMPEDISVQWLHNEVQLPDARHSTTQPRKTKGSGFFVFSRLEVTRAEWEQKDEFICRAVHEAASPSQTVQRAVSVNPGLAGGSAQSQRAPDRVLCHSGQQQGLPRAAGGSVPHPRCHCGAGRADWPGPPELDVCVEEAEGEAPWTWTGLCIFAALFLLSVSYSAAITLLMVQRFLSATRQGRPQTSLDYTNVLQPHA
T1 sequence (Q01362 whole entry partner): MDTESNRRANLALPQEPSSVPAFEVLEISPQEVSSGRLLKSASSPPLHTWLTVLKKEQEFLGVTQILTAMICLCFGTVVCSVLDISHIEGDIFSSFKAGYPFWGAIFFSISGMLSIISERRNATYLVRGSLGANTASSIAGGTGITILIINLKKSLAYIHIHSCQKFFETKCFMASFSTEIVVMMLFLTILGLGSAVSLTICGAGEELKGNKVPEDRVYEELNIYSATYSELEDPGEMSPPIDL
T1 sequence (P30273 19-86 partner): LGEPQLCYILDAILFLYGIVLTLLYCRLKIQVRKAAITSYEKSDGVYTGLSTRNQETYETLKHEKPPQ

SMILES	IC50, inhibition of IgE/FcεRI binding [1] [µg/mL]	% Inhibition of IgE/FcεRI binding [1] [%]	IC50, inhibition of anaphylaxis in the rat PCA model (IgE/FcεRI [3]) [µg/mL]	inhibition at 10 µg/mL ([6]; 10 μg/ml) [%]	IC50 [6] [µM]	also measured
CCOC(=O)c1c(Cl)c(Cl)c(Cl)c(Cl)c1-c1c2cc(Br)c(=O)c(Br)c-2oc2c(Br)c(O)c(Br)cc12 [Compound 3]	4.30	90	–	–	–	–
O=C(O)c1c(Cl)c(Cl)c(Cl)c(Cl)c1-c1c2cc(I)c(=O)c(I)c-2oc2c(I)c(O)c(I)cc12 (single isomer, unassigned) [Compound 1]	0.34	98	0.46	46	12	% Inhibition of PCA (IgE/FcεRI [2]; 47 mg/kg I.V.): 2.0%; % Inhibition of PCA (IgE/FcεRI [2]; 70 mg/kg I.V.): 64.0%; % Inhibition of PCA (IgE/FcεRI [2]; 94 mg/kg I.V.): 104.0%; % Inhibition of PCA (IgE/FcεRI [2]; 114 mg/kg I.V.): 102.0%; Percent inhibition of PCA reaction (IgE/FcεRI [3]; 0.25 μg/ml): 5%; Percent inhibition of PCA reaction (IgE/FcεRI [3]; 0.5 μg/ml): 66%; Percent inhibition of PCA reaction (IgE/FcεRI [3]; 1 μg/ml): 100%; concentration at 0 h ([4]; 0 minute): 83000 ng/mL; concentration at 0.25 h ([4]; 15 minute): 2510 ng/mL; concentration at 0.5 h ([4]; 30 minute): 902 ng/mL; concentration at 1 h ([4]; 60 minute): 720 ng/mL; concentration at 2 h ([4]; 120 minute): 625 ng/mL; concentration at 4 h ([4]; 240 minute): 512 ng/mL; No. of Death ([5]; 400 mg/kg I.V., single injection, 3 mice): 0; LD50 ([5]; mouse, in vivo, iv, mice, single I.V. injection in PBS): > 400 mg/kg
COC(=O)c1ccccc1-c1c2cc(Br)c(=O)c(Br)c-2oc2c(Br)c(O)c(Br)cc12 [Compound 7]	1.46	87	–	84	6.65	–
O=C(O)c1c(Cl)c(Cl)c(Cl)c(Cl)c1-c1c2cc(I)c(=O)c(I)c-2oc2c(I)c(O)c(I)cc12 (single isomer, unassigned) [Compound 2]	0.38	100	1.10	–	5.65	inhibition at 0.1 µg/mL ([7]; 0.1 μg/ml): 11%; inhibition at 0.62 µg/mL ([7]; 0.62 μg/ml): 19%; inhibition at 1.25 µg/mL ([7]; 1.25 μg/ml): 75%; inhibition at 2.5 µg/mL ([7]; 2.5 μg/ml): 96%; inhibition at 5 µg/mL ([7]; 5 μg/ml): 94%; % Inhibition of IgE-FcεRI binding ([6]; 10 μg/ml): 62%
O=C(O)c1c(Cl)c(Cl)c(Cl)c(Cl)c1-c1c2ccc(=O)c(O)c-2oc2c(O)c(O)ccc12 [Compound 6]	0.63	83	–	–	–	–
O=C(O)c1c(Cl)ccc(Cl)c1-c1c2cc(I)c(=O)c(I)c-2oc2c(I)c(O)c(I)cc12 [Compound 5]	0.56	99	–	–	–	–
O=c1c(Br)cc2c(-c3ccccc3S(=O)(=O)O)c3cc(Br)c(O)c(O)c3oc-2c1O [Compound 8]	0.65	87	–	–	–	–
CCOC(=O)c1ccccc1-c1c2cc(Br)c(=O)c(Br)c-2oc2c(Br)c(O)c(Br)cc12 [Compound 4]	0.82	98	2.90	93	5.33	–
